In patent US5688774A (priority 1995, dated 1997):
Like-named read-outs stand apart in the source and are kept apart here.

Tests used:
rat brain A2a receptor = target: T1, rat brain A2a receptor (Rattus norvegicus, UniProt P30543); test: Displacement of [^3 H]CGS 21680 binding at A2a receptors
T1 construct: A2 receptors from rat striatal membranes; from tissue; host or cells: rat striatal membranes
Procedure: Rat cerebral cortical and striatal membranes were prepared (Jacobson et al., J. Med. Chem., 35, 4143-4149 (1992)) and treated with ADA for 30 min at 37° C. prior to storage at -70° C.
The stock solutions were diluted with DMSO to a concentration of ≤0.1 mM prior to addition to the aqueous medium. The final concentration of DMSO in the assay medium was generally 2%.
At least six different concentrations spanning three orders of magnitude, adjusted appropriately for the IC50 of each compound, were used. […]. Pharmacol., 22, 3099-3108 (1973)).

[1] = target: T2, rat A3 adenosine receptors (Rattus norvegicus, UniProt P28647); test: Inhibition of adenylate cyclase in CHO cells stably transfected with rat A3 adenosine receptors; assay type: cell-based; parameters: key to Effect on IB-MECA dose-resp. curve: no effect; conditions: for Ratio Conc./Ki (A3): test concentration divided by Ki (A3)
T2 construct: expressed in transfected cells; host or cells: CHO cells, stably transfected
T2 sequence (P28647 1-320): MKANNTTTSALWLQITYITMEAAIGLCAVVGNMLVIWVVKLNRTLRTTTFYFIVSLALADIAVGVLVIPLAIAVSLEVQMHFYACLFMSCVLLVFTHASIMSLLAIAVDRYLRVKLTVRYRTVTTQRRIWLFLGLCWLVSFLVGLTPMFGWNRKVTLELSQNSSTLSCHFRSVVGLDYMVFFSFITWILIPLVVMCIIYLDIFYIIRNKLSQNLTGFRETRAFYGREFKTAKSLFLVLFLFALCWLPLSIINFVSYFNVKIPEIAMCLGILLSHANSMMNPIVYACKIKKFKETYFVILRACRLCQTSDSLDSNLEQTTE

rat brain A1 receptor = target: T3, rat brain A1 receptor (Rattus norvegicus, UniProt P25099); test: Displacement of [^3 H]PIA binding at A1 receptors; conditions: for % Inhibition (A1): at 10^-4, rat brain
T3 construct: Rat cerebral cortical and striatal membranes were prepared; from tissue; host or cells: rat brain membranes (cerebral cortical)
T3 sequence (P25099 1-326): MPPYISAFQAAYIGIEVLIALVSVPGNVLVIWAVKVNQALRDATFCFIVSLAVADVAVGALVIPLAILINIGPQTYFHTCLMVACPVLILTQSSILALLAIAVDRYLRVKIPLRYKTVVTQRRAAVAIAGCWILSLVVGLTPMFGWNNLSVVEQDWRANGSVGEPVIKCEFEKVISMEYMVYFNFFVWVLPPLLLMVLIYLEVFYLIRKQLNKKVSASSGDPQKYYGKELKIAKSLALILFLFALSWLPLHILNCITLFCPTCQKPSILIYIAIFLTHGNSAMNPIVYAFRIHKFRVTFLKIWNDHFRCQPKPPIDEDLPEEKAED

[2] = at 10^-4, [^3 H]CGS 21680, rat brain
[3] = CHO, 1 μM forskolin, average ± S.E.M. for 2-3 determinations or a single value, read-out: % Inhib. (adenylate cyclase)
[4] = [^3 H]PIA, rat brain membranes, Ki ± S.E.M., n = 3-6
[5] = [^3 H]CGS 21680, rat brain membranes, Ki ± S.E.M., n = 3-6

T1 sequence (P30543 whole entry): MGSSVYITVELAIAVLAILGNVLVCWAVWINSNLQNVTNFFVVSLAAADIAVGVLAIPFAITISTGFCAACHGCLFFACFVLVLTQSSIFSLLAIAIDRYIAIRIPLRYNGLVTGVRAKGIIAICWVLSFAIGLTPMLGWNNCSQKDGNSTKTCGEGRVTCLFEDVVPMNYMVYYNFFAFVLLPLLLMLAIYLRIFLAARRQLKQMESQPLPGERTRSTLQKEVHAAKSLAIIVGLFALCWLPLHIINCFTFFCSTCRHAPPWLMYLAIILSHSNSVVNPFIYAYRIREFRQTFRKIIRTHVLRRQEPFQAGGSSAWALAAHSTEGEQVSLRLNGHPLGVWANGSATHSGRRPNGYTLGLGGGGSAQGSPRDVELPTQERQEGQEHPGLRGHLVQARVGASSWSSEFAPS

Row | Ki (rat brain A1 receptor; [4]) [µM] | Ki (rat brain A2a receptor; [5]) [µM] | Compound | further results
1 | – | – | CNc1nc(NCc2cccc(I)c2)c2ncn([C@@H]3OC[C@@H](O)[C@H]3O)c2n1 [Compound 29, 9-(β-D-Erythrofuranoside)-2-Methylamino-N^6-(3-Iodobenzyl)adenine] | Ki (rat brain A2a receptor): 3.39 ± 0.29 µM; Ki (rat brain A1 receptor): 0.66 ± 0.01 µM
2 | – | – | CNC(=O)[C@@H]1C[C@H](F)[C@H](n2cnc3c(NCc4cccc(I)c4)nc(Cl)nc32)O1 [Compound 44, 2-Chloro-9-(2',3'-Dideoxy-2'-Fluoro-β-D-5'-Methyl-Arabinofuronamido)-N^6-(3-Iodobenzyl)adenine] | inhibition at 100 µM [1, 3]: 11.2%; Ratio Conc./Ki (A3) [1]: 5.6
3 | – | – | CSc1nc(NCc2cccc(I)c2)c2ncn(C[C@@H](O)CO)c2n1 [Compound 19b, R-N^6-(3-Iodobenzyl)-9-(2,3-dihydroxypropyl)-2-methylthioadenine] | Effect on IB-MECA dose-resp. curve ([1]; 1 μM forskolin): c; inhibition at 40 µM ([1]; CHO, 40 μM, 1 μM forskolin, average ± S.E.M. for 2-3 determinations or a single value, read-out: % Inhib. (adenylate cyclase)): 7.4 ± 3.7%; Ratio Conc./Ki (A3) [1]: 4.6
4 | 1.48 ± 0.12 | 9.89 ± 3.01 | CN(C)c1nc(NCc2cccc(I)c2)c2ncn(C)c2n1 [Compound 12, 2-Dimethylamino-N^6-(3-Iodobenzyl)-9-Methyladenine] | –
5 | 13.8 ± 2.2 | 18.9 ± 1.9 | OC[C@@H](O)Cn1cnc2c(NCc3cccc(I)c3)ncnc21 [Compound 19, R--N^6-(3-Iodobenzyl)-9-(2,3-Dihydroxypropyl)adenine] | –
6 | 5.57 ± 1.32 | 3.22 ± 1.52 | Cn1cnc2c(NCc3cccc(I)c3)nc(N)nc21 [Compound 9, 2-Amino-N^6-(3-iodobenzyl)-9-methyladenine] | –
7 | – | – | O=C(O)Cn1cnc2c(NCc3cccc(I)c3)ncnc21 [Compound 21, N^6-(3-Iodobenzyladenin-9-yl)acetic Acid] | % Inhibition (A2a) (rat brain A2a receptor): 9%; % Inhibition (A1) (rat brain A1 receptor; [^3 H]PIA): 17%
8 | – | – | CNC(=O)[C@H]1O[C@@H](n2cnc3c(NNc4ccccc4)ncnc32)[C@H](O)[C@@H]1O [Compound 70, 6-(N'-phenylhydrazinyl)Purine-9-β-Ribofuranoside-5'-N-Methyluronamide] | Ki (rat brain A2a receptor): 7.16 µM
9 | 1.29 ± 0.08 | 41.9 ± 6.2 | CNC(=O)[C@@H]1C[C@@H](OS(C)(=O)=O)[C@H](n2cnc3c(NCc4cccc(I)c4)nc(Cl)nc32)O1 [Compound 41, 2-Chloro-9-(3-Deoxy-2-Methanesulfonyl-β-D-5-Methyl-Ribofuronamido)-N^6-(3-Iodobenzyl)adenine] | –
10 | 8.61 ± 2.55 | 6.22 ± 2.71 | CNC(=O)[C@H]1O[C@@H](n2cnc3c(NCc4ccco4)ncnc32)[C@H](O)[C@@H]1O [Compound 74, 1-(6-Furfurylamino-9H-Purin-9-yl)-1-Deoxy-N-Methyl-β-D-Ribofuranosiduronamide] | –
11 | – | – | CNC(=O)[C@H]1O[C@@H](n2cnc3c(NCc4cccc(NC(=O)CCNC(=O)OC(C)(C)C)c4)ncnc32)[C@H](O)[C@@H]1O [Compound 67, N^6-[3-(N-6-Boc-β-Alanylamino)Benzyl]Adenosine-5'-Methyluronamide] | Ki (rat brain A2a receptor): 1.96 µM
12 | 5.73 ± 1.88 | 2.23 ± 1.33 | Cn1cnc2c(NCc3cccc(I)c3)ncnc21 [Compound 3, N^6-(3-Iodobenzyl)-9-Methyladenine] | –
13 | 19.1 ± 2.2 | 41.8 ± 12.5 | OC[C@H](O)Cn1cnc2c(NCc3cccc(I)c3)ncnc21 [Compound 20, S--N^6-(3-Iodobenzyl)-9-(2,3-Dihydroxypropyl)adenine] | –
14 | – | – | CCCNc1nc(NCc2cccc(I)c2)c2ncn(C)c2n1 [Compound 13, N^6-(3 -Iodobenzyl)-9-Methyl-2-Propylaminoadenine] | Ki (rat brain A2a receptor): 1.72 ± 0.7 µM; Ki (rat brain A1 receptor): 0.33 ± 0.08 µM
15 | – | – | CNC(=O)[C@H]1O[C@@H](n2cnc3c(NCc4cccc(I)c4)nc(Cl)nc32)[C@H](OC(=O)c2ccccc2)[C@@H]1OC(=O)c1ccccc1 [2-Chloro-9-(2',3'-dibenzoyl-β-D-5-methyl-ribofuronamido)-N^6-(3-iodobenzyl)adenine] | % Inhibition (A2a) (rat brain A2a receptor): 7%; % Inhibition (A1) (rat brain A1 receptor; [^3 H]PIA): 21%
16 | 24.2 ± 7.9 | 90 ± 12.7 | 2-Chloro-9-(β-arabinosyl)adenine | –

Row | Ki (rat brain A1 receptor; [4]) [µM] | Ki (rat brain A2a receptor; [5]) [µM] | Compound | further results
17 | – | – | CNC(=O)[C@H]1O[C@@H](n2cnc3c(NCc4cccc(I)c4)nc(Cl)nc32)[C@H](O)[C@@H]1O [2-chloro-N^6-(3-iodobenzyl)-adenosine-5'-N-methyluronamide, reference compound] | agonist efficacy in inhibition of adenylate cyclase ([1]; in words, via rat A3 receptors): full agonist; agonist potency in inhibition of adenylate cyclase ([1]; in words, vs. other agonists): greater than that of other agonists
18 | 150 ± 28 | 54.7 ± 3.1 | 9-(β-talosyl)adenine | –
19 | 22.9 ± 3.7 | 15.1 ± 1.6 | OCCn1cnc2c(NCc3cccc(I)c3)ncnc21 [Compound 18, N^6-(3-Iodobenzyl)-9-Hydroxyethyladenine] | –
20 | 5.44 ± 0.05 | 19.6 ± 7.8 | Cn1cnc2c(NCc3cccc(I)c3)nc(NN)nc21 [Compound 10, 2-Hydrazido-N^6-(3-Iodobenzyl)-9-Methyladenine] | –
21 | 6.03 ± 1.37 | 18.7 ± 5.8 | N#CCCCn1cnc2c(NCc3cccc(I)c3)ncnc21 [Compound 22, N^6-(3-Iodobenzyl)-9-(3-Cyanopropyl)adenine] | –
22 | – | – | Clc1nc(NCc2cccc(I)c2)c2ncn(C3CCCO3)c2n1 (stereo not drawn) [Compound 30, 2-Chloro-N-(3-Iodobenzyl)-9-(2-Tetrahydrofuryl)-9H-Purin-6-Amine] | Ki (rat brain A2a receptor): 4.12 ± 0.18 µM; Ki (rat brain A1 receptor): 0.174 ± 0.017 µM
23 | – | – | CNC(=O)[C@H]1O[C@@H](n2cnc3c(NOc4ccccc4)ncnc32)[C@H](O)[C@@H]1O [Compound 71] | Ki (rat brain A2a receptor): 66.3 µM
24 | 0.45 ± 0.11 | 2.7 ± 0.56 | Cn1cnc2c(NCc3cccc(I)c3)nc(Cl)nc21 [Compound 6, 2-Chloro-N^6-(3-Iodobenzyl)-9-Methyladenine] | –
25 | – | – | CNC(=O)[C@H]1O[C@@H](n2cnc3c(NCc4cccc(NC(=O)CCN)c4)ncnc32)[C@H](O)[C@@H]1O [Compound 66, N^6-[3(β-Alanylamino)Benzyl]Adenosine-5'-Methyluronamide] | Ki (rat brain A2a receptor): 0.144 ± 0.04 µM
26 | 6.69 ± 0.74 | – | CNC(=O)[C@@H]1C[C@H](N)[C@H](n2cnc3c(NCc4cccc(I)c4)nc(Cl)nc32)O1 [Compound 43, 2-Chloro-9-(2'-Amino-2',3'-dideoxy-β-D-5'-methyl-Arabinofuronamido)N^6-(3-Iodobenzyl)adenine] | % Inhibition (A2a) (rat brain A2a receptor; [2]): 2%
27 | – | – | CNC(=O)[C@H]1C[C@@H](n2cnc3c(NCc4cccc(I)c4)ncnc32)[C@H](O)[C@@H]1O (relative stereo) [Compound 61, (±)-9-[2α,3β-Dihydroxy-4β-(N-Methylcarbamoyl)Cyclopent-1β-yl)]-N^6-(3-Iodobenzyl)-adenine] | % Inhibition (A2a) (rat brain A2a receptor; [2]): 28 ± 5%
28 | 0.648 ± 0.102 | 3.56 ± 0.84 | CNc1nc(NCc2cccc(I)c2)c2ncn(C)c2n1 [Compound 11, N^6-(3-Iodobenzyl)-2-Methylamino-9-Methyladenine] | –
29 | – | – | CNC(=O)[C@H]1O[C@@H](n2cnc3c(NCc4cccc(NC(=O)[C@@H]5CCCN5)c4)ncnc32)[C@H](O)[C@@H]1O [Compound 65, N^6-[3-(L-Prolylamino)Benzyl]Adenosine-5'-N-Methyluronamide] | Ki (rat brain A2a receptor): 0.215 ± 0.054 µM
30 | 0.84 ± 0.19 | 11.6 ± 4 | Cn1cnc2c(NCc3cccc(I)c3)nc(Sc3ccncc3)nc21 [Compound 17, N^6-(3-Iodobenzyl)-9-Methyl-2-(4-Pyridylthio)adenine] | –
31 | – | – | CCCCCCNc1nc(NCc2cccc(I)c2)c2ncn(C)c2n1 [Compound 14, 2-Hexylamino-N^6-(3-Iodobenzyl)-9-Methyladenine] | % Inhibition (A2a) (rat brain A2a receptor): 11 ± 4%; Ki (rat brain A1 receptor): 4.48 ± 0.82 µM
32 | 0.5 ± 0.21 | 1.24 ± 0.11 | COc1nc(NCc2cccc(I)c2)c2ncn(C)c2n1 [Compound 15, N^6-(3-Iodobenzyl)-2-Methoxy-9-Methyladenine] | –

Row | Compound | Ki (rat brain A1 receptor; [4]) [µM] | Ki (rat brain A2a receptor; [5]) [µM] | further results
33 | CC(C)[Si]1(C(C)C)OC[C@H]2O[C@@H](n3cnc4c(NCc5cccc(I)c5)nc(Cl)nc43)[C@H](O)[C@@H]2O[Si](C(C)C)(C(C)C)O1 [Compound 45, 2-Chloro-9-(3,5-1,1,3,3-Tetraisopropyldisiloxyl-β-D-5-Ribofuranosyl)-N^6-(3-Iodobenzyl)adenine] | 66.3 ± 19.8 | – | % Inhibition (A2a) (rat brain A2a receptor; [2]): 18 ± 2%; inhibition at 100 µM [1, 3]: 8.7%; Ratio Conc./Ki (A3) [1]: 7.6
